Measured values from patent US20230212549A1, “COMPOUNDS COMPRISING A […] LIGAND AND USE THEREOF” (priority 2021, published 2023).
Numbered stars: 1 amine (or outer) side, 2 acyl side, 3 side chain; on linkers, the order of the positions; unused ones are H or OH. Bridge positions count the residues as written; N and C are the ends. Square brackets hold non-standard residues; d marks the D form. Peptide text beside a SMILES is read from it. * marks the point of attachment. X13 = O=C(O)CN1CCN(CC(=O)O)CCN(CC(=O)N2CCN(Cc3cc(C[*:1])cc(C[*:2])c3)CC2)CCN(CC(=O)O)CC1; NH(1-deoxy-D-glucityl) = OC[C@@H](O)[C@@H](O)[C@H](O)[C@@H](O)CN*; DOTA = O=C(O)CN1CCN(CC(=O)O)CCN(CC(=O)*)CCN(CC(=O)O)CC1; X3 = NCCNCC(CNCCN)C(=O)NCCCOCCOCCOCCCN*; mXylylene = c1cc(C[*:1])cc(C[*:2])c1; NMeF = CN[C@@H](Cc1ccccc1)C(=O)O; X29 = O=C(CN1CCN([*:1])CC1)[*:2]; Suc = O=C(CCC(=O)[*:2])[*:1]; Nle = CCCC[C@H](N)C(=O)O; X2 = NCCNCC(CNCCN)C(=O)*; Hexanoyl = CCCCCC(=O)*; βAla = NCCC(=O)O

Experiments:
[1] = target: Human recombinant FAP (Homo sapiens, UniProt Q12884); experiment: FRET-based FAP protease activity assay; assay type: biochemical; set-up: purchased R&D systems 3715-SE
Human recombinant FAP, sequence (Q12884 whole entry): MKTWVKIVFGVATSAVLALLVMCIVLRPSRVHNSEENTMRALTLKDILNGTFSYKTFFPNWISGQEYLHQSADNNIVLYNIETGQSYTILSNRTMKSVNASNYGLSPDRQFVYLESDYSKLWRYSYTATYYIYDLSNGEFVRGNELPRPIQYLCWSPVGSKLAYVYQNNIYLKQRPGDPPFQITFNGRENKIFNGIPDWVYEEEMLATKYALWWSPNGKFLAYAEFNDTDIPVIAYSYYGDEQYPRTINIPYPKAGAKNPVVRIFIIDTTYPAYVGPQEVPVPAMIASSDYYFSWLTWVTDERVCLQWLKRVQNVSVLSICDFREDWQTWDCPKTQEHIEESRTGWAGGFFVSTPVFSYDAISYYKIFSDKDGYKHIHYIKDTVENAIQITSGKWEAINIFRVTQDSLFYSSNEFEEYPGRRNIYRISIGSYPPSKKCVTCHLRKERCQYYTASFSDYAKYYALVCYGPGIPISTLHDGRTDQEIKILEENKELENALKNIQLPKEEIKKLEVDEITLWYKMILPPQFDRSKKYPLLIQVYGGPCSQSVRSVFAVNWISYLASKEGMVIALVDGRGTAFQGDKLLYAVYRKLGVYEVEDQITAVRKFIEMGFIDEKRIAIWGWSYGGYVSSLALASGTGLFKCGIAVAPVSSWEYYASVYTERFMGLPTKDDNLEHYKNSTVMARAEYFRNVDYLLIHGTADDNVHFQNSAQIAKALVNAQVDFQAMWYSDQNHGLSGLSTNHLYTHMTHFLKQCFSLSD

[2] = target: T1, FAP-expressing human WI-38 fibroblasts (Homo sapiens, UniProt Q12884); experiment: Competitive FACS binding assay
T1 construct: FAP-expressing human WI-38 fibroblasts (ECACC) were cultured in EMEM; host or cells: WI-38 human fibroblasts
T1 sequence (Q12884 whole entry): as above
Procedure: Cells were analyzed in an Attune NxT flow cytometer. […] […].
Cells were analyzed in an Attune NxT flow cytometer. […]

[3] = pIC50 Category (Activity), FRET-based FAP protease activity assay, recombinant human FAP, 37° C.
[4] = pIC50 Category (Activity), FRET-peptide substrate, 37° C.
[5] = pIC50 Category (activity), Recombinant human FAP

Compound | IC50 [1, 3] [nM] | IC50 [2] [nM] | IC50 [1, 4] [nM] | IC50 [1, 5] [nM] | pIC50 Category (FACS) ([2]; FAP-expressing human WI-38 fibroblasts)
C[C@@H](O)[C@@H]1NC(=O)[C@@H]2CCCN2C(=O)[C@@H]2CCCN2C(=O)[C@@H](NC(=O)CCNC(=O)CN2CCN(CC(=O)O)CCN(CC(=O)O)CCN(CC(=O)O)CC2)CSCc2cccc(c2)CSC[C@@H](C(=O)N[C@@H](CC(=O)O)C(=O)N[C@@H](Cc2c[nH]cn2)C(=O)N(C)[C@@H](Cc2ccccc2)C(=O)N[C@@H](CCCNC(=N)N)C(=O)N[C@@H](CC(=O)O)C(N)=O)NC(=O)[C@H](Cc2ccccc2)NC(=O)[C@H](CCC(=O)O)NC1=O [3BP-3264, DOTA-Bal-[Cys(3MeBn)-Pro-Pro-Thr-Glu-Phe-Cys]-Asp-His-Nmf-Arg-Asp-NH2] ({DOTA-βAla}-CPPTEFCDH[NMeF]RD-NH2; linker 1-7 via mXylylene) | 10 to 79.4 | 10 to 79.4 |  |  | 
CCCCCC(=O)N[C@H]1CSCc2cc(CSCCNC(=O)CCC(=O)NCCCOCCOCCOCCCNC(=O)CCCCC3(N(C)CC(=O)O)CN(CC(=O)O)CCN(CC(=O)O)C3)cc(c2)CSC[C@@H](C(=O)O)NC(=O)[C@H](Cc2ccccc2)NC(=O)[C@H](CCC(N)=O)NC(=O)[C@H]([C@@H](C)O)NC(=O)[C@@H]2CCCN2C(=O)[C@@H]2CCCN2C1=O [3BP-4384, Hex-[Cys(tMeBn(DATA-Ttds-AET))-Pro-Pro-Thr-Gln-Phe-Cys]-OH] |  | 10 to 79.4 | 10 to 79.4 | 10 to 79.4 | B (category B for pIC50 values between 7.1 and 8.0)
CCCC[C@H](NC(=O)CCNC(=O)CN1CCN(C(=O)C(CNCCN)CNCCN)CC1)C(=O)N[C@H]1CSCc2cccc(c2)CSC[C@@H](C(=O)O)NC(=O)[C@H](Cc2ccccc2)NC(=O)[C@H](CCC(=O)O)NC(=O)[C@H]([C@@H](C)O)NC(=O)[C@@H]2CCCN2C(=O)[C@@H]2CCCN2C1=O [3BP-4783, N4Ac-PPAc-Bal--Nle-[C(3MeBn)-PPTEFC]-OH] (X2-[X29][βAla][Nle]CPPTEFC-OH; linker 4-10 via mXylylene) |  | > 1000 |  | > 1000 | 
CCCCCC(=O)N[C@H]1CSCc2cc(CSCCNC(=O)CCC(=O)NCCCOCCOCCOCCCNC(=O)[C@H](CO)NC(=O)[C@H](CO)NC(=O)[C@H](CO)NC(=O)CS)cc(c2)CSC[C@@H](C(=O)O)NC(=O)[C@H](Cc2ccccc2)NC(=O)[C@H](CCC(N)=O)NC(=O)[C@H]([C@@H](C)O)NC(=O)[C@@H]2CCCN2C(=O)[C@@H]2CCCN2C1=O [3BP-4308, Hex-[Cys-(tMeBn(H-SAc-Ser-Ser-Ser-Ttds-AET))-Pro-Pro-Thr-Gln-Phe-Cys]-OH] |  | 10 to 79.4 | 10 to 79.4 |  | 
C[C@@H](O)[C@@H]1NC(=O)[C@@H]2CCCN2C(=O)[C@@H]2CCCN2C(=O)[C@@H](NC(=O)Cc2ccncc2)CSCc2cccc(c2)CSC[C@@H](C(N)=O)NC(=O)[C@H](Cc2ccccc2)NC(=O)[C@H](CCC(N)=O)NC1=O [3BP-3762, 4Pya-[Cys(3MeBn)-Pro-Pro-Thr-Gln-Phe-Cys]-NH2] | 100 to 794 | > 1000 |  |  | 
CCCC[C@H](NC(=O)[C@H](CCC(=O)NC[C@H](O)[C@@H](O)[C@H](O)[C@H](O)CO)NC(=O)CCC(=O)NCCCOCCOCCOCCCNC(=O)C(CNCCN)CNCCN)C(=O)N[C@H]1CSCc2cccc(c2)CSC[C@@H](C(=O)O)NC(=O)[C@H](Cc2ccccc2)NC(=O)[C@H](CCC(=O)O)NC(=O)[C@H]([C@@H](C)O)NC(=O)[C@@H]2CCCN2C(=O)[C@@H]2CCCN2C1=O [3BP-4231, N4Ac-Ttds-Glu(AGLU′)-Nle-[Cys-(3MeBn)-Pro-Pro-Thr-Glu-Phe-Cys]-OH] ({X3-Suc}-E(NH(1-deoxy-D-glucityl))[Nle]CPPTEFC-OH; linker 3-9 via mXylylene) |  | > 1000 | > 1000 |  | 
CCCCCC(=O)N[C@H]1CSCc2cc(cc(CN3CCN(C(=O)CN4CCN(CC(=O)O)CCN(CC(=O)O)CCN(CC(=O)O)CC4)CC3)c2)CSC[C@@H](C(=O)N[C@@H](CC(=O)O)C(N)=O)NC(=O)[C@H]([C@@H](C)O)NC(=O)[C@@H]2CCCN2C(=O)[C@H](Cc2ccccc2)NC(=O)[C@H](CCC(N)=O)NC(=O)[C@@H]2CCCN2C1=O [3BP-3857, Hex-[Cys(tMeBn(DOTA-PP))-Pro-Gln-Phe-Pro-Thr-Cys]-Asp-NH2] (Hexanoyl-CPQFPTCD-NH2; linker 1-7 via X13) | 100 to 794 | 100 to 794 |  |  | 
